According to patent publication US20050265997A1, “Cancer treatment method by inhibiting MAGE gene expression or function” (WISCONSIN ALUMNI RESEARCH FOUNDATION, priority 2004, published 2005):

Experiments:
Format in all cases: cell-based, human
HMC-1.1 cells = assay: Induction of apoptosis by STI 571; conditions: following decrease of MAGE mRNA and protein
Description: (§1) The human mast cell line HMC-1 is dependent on the expression of mutant KIT protein which is constitutively activated, and inhibition of activated KIT with a drug induces apoptosis of HMC-1 cells (Ma et al., 2002, The c-KIT mutation causing human mastocytosis is resistant to STI571 and other KIT kinase inhibitors; kinases with enzymatic site mutations show different inhibitor sensitivity profiles than wild-type kinases and those with regulatory-type mutations. Blood 99:1741-4.). However, the mechanism by which KIT inhibitors cause apoptosis in these cells is unknown. To look for genes whose products could regulate and transduce KIT related signals controlling apoptosis, we used gene chip array analysis to study changes in the mRNA levels of specific genes following induction of apoptosis.

[1] = system: MAGE-A protein in HMC-1.1 cells; assay: Western blot of MAGE-A protein after STI 571; conditions: 12 and 24 hours after administration of STI 571
[2] = system: MAGE mRNA in HMC-1.1 cell; assay: Genechip array analysis of MAGE mRNA after STI 571; conditions: HMC-1.1 cells, 1 μM STI571 for 4 hours, Means +/- SEM
Description: as §1
HMC-1.1 cells were divided into triplicate cultures of two groups: a control group treated with PBS, and an experimental group treated with 1 μM STI571, a KIT inhibitor for 4 hours. A quarter of the cells were used for Western blots to confirm the KIT inhibition, and the rest were used for total RNA isolation for genechip analysis. We used Affymetrix Genechip human Genome U133A chips. The arrays were hybridized and scanned and the data were analyzed using dChip analysis software. The statistical significance of differences in mRNA expression levels between STI571 treated and control cells were assessed by t-test based on data from three independent replicates. Values are expressed as Means +/−SEM, and p<0.05 was considered statistically significant.

## Cc1ccc(NC(=O)c2ccc(CN3CCN(C)CC3)cc2)cc1Nc1nccc(-c2cccnc2)n1 [STI 571]
HMC-1.1 cells
  apoptosis of the cells: followed by apoptosis of the cells
[1]
  MAGE-A protein level (Western blot): down-regulation of MAGE-A protein
[2]; three replicates, PBS control 757 ± 29
  mRNA level, melanoma antigen, family A, 1 (NM_004988): 562 ± 33
[2]; PBS control 513 ± 29
  mRNA level, melanoma antigen, family A, 12 (BC003408): 410 ± 26
[2]; PBS control 514 ± 13
  mRNA level, melanoma antigen, family E, 1 (NM_016249): 405 ± 21
[2]; PBS control 520 ± 28
  mRNA level, melanoma antigen, family A, 5 (AI200443): 414 ± 28
[2]; PBS control 896 ± 54
  mRNA level, melanoma antigen, family A, 6 (U10691): 712 ± 42
[2]; PBS control 977 ± 67
  mRNA level, melanoma antigen, family A, 3 (BC000340): 779 ± 32
